# Measurements taken from patent US4732983A, “Pyschotropic polycyclic imides” (American Home Products Corporation, priority 1987, dated 1988).
# Like-named read-outs stand apart in the source and are kept apart here.
# Tests used:
# D-2 dopamine receptor = target: T1, D-2 dopamine receptor (Rattus norvegicus, UniProt P61169); assay: [3H]spiroperidol binding inhibition, homogenized limbic brain tissue
# T1 construct: homogenized limbic brain tissue is incubated with; from tissue; host or cells: homogenized limbic brain tissue
# T1 sequence (P61169 whole entry): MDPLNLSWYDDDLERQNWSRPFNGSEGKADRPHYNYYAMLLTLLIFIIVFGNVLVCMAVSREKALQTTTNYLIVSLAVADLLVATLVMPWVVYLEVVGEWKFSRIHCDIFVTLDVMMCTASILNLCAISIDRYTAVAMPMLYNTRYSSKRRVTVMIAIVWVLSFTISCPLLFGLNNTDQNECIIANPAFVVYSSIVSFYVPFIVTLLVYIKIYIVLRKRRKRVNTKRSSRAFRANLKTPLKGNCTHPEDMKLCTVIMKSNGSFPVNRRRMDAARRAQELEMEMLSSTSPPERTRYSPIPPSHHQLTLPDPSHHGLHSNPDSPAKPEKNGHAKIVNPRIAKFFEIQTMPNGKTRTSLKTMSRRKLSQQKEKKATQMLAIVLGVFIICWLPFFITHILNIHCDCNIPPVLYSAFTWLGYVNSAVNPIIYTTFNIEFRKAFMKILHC
# [1] = system: male CD rats (Charles River); assay: Conditioned avoidance, shelf-jump response; format: in vivo, rat; details: 40 mg/kg i.p., single dose
# Description: The rat can avoid the electric shock by jumping to an exposed shelf (shelf-jump response). A response during the initial warning tone is considered an avoidance response, while a response during shock delivery is considered as escape response. […] The compounds of this invention were tested at a single dose (40 mg./kg. i.p.) in this procedure and were rated relative to their inhibition of conditioned avoidance responding.
# rats = assay: Conditioned avoidance, discrete trial (lever press substituted for shelf-jump), Avoidance Block; format: in vivo, rat; details: for Conditioned Avoidance Discrete Trial AB50 (Avoidance Block): p.o.; for ED50: Rattus norvegicus, po, read-out: Conditioned Avoidance Discrete Trial AB50 (Avoidance Block)
# [2] = system: CF-1 mice (Charles River); assay: Antagonism of apomorphine-induced stereotyped behavior and climbing; format: in vivo, mouse; details: for ED50: Mus musculus, po; for ED50 / Apomorphine Antagonism ED50, stereotypy / Apomorphine Antagonism ED50, climbing: apomorphine 1 mg/kg s.c.; for Apomorphine Antagonism ED50, stereotypy / Apomorphine Antagonism ED50, climbing: p.o.; for ratio of the ED50 for stereotyped behavior to the ED50 for climbing: apomorphine-induced, standard antipsychotic drugs
# Description: Readings are repeated every five minutes during a thirty minute test session. […] The ratio of the ED50 for stereotyped behavior to the ED50 for climbing is calculated.
# [3] = target: T2, 5-HT1A serotonin receptor (Rattus norvegicus, UniProt P19327); assay: Inhibition of [3H]8-OH DPAT binding
# T2 construct: 44: 1685-1696, 1985; from tissue
# T2 sequence (P19327 1-422): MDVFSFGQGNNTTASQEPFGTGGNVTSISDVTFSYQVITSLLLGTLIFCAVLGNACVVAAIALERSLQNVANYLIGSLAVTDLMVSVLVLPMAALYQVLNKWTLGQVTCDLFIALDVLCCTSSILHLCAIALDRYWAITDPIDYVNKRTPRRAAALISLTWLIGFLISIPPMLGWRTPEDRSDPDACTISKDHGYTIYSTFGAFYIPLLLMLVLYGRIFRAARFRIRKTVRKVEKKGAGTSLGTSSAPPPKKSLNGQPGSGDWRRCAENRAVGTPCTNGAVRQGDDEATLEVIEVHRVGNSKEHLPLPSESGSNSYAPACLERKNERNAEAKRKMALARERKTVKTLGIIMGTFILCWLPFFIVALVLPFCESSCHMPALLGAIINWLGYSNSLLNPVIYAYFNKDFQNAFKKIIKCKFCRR
# [4] = read-out: Apomorphine Antagonism ED50, climbing
Compound,inhibition at 1 µM (D-2 dopamine receptor),Conditioned Avoidance Shelf-Jump (inhibition of conditioned avoidance responding) [1],Conditioned Avoidance Discrete Trial AB50 (Avoidance Block) (rats),Ki [3],"Apomorphine Antagonism ED50, stereotypy [2]","Apomorphine Antagonism ED50, climbing [2]",further results
"O=C1C2C3CC4C2C4C3C(=O)N1CCCCN1CCN(c2cncc(Cl)n2)CC1 [Example 6, 2-[4-[4-(6-Chloro-2-pyrazinyl)-1-piperazinyl]butyl]hexahydro-4,6,7-metheno-1H-2-pyridine-1,3-(2H)-dione]",29%,~ 80%,active,51 nM,–,–,"ED50 [2, 4]: 1.74 mg/kg; ED50 ([2]; read-out: Apomorphine Antagonism ED50, stereotypy): 40.5 mg/kg"
"O=C1C2C(C(=O)N1CCCCN1CCN(c3ncccn3)CC1)C1C3CC4C(C32)C41 (stereo not drawn) [Example 1, Endo-2-[4-[4-(2-pyrimidinyl)-1-piperazinyl]butyl]octahydro-4,5,7-metheno-1H-pentaleno[1,2-c]pyrrole-1,3(2H)-dione]",–,~ 80%,–,12.8 nM,inactive,–,"[3H] Spiroperidol Binding Inhibition, % at 1 μM (D-2 dopamine receptor; 1 µM): 76%; ED50 (rats): 55.7 mg/kg; ED50 [2, 4]: 17 mg/kg"
"CSc1ccc2c(c1)N(CCC1CCCCN1C)c1ccccc1S2 (stereo not shown) [thioridazine, reference compound]",–,–,–,–,–,–,ratio of the ED50 for stereotyped behavior to the ED50 for climbing [2]: 1.83
"O=C1C2C3CC4C2C4C3C(=O)N1CCCCN1CCN(c2ncccn2)CC1 [Example 7, 2-[4-[4-(2-Pyrimidinyl)-1-piperazinyl]butyl]hexahydro-4,6,7-metheno-1H-2-pyridine-1,3-(2H)-dione]",51%,~ 80%,weak,16 nM,inactive,inactive,–
"O=C(CCCN1CCC(O)(c2ccc(Cl)cc2)CC1)c1ccc(F)cc1 [haloperidol, reference compound]",–,–,–,–,–,–,ratio of the ED50 for stereotyped behavior to the ED50 for climbing [2]: 1.00
"Exo-2-[4-[4-(6-chloro-2-pyrazinyl)-1-piperazinyl]butyl]octahydro-4,57-metheno-1H-pentaleno[1,2-c]pyrrole-1,3-(2H)-dione [Example 4]",–,> 20%,56.16 mg/kg,–,inactive,inactive,"[3H] Spiroperidol Binding Inhibition, % at 1 μM (D-2 dopamine receptor): 54%; Inhibition of [3H] 8-OH DPAT Binding, % at 1 μM ([3]; 1 μM): 76%"
"O=C1C2C(C(=O)N1CCCCN1CCN(c3cnccn3)CC1)C1C3CC4C(C32)C41 (stereo not drawn) [Example 5, Endo-2-[4-[4-(2-pyrazinyl)-1-piperazinyl]butyl]octahydro-4,5,7-metheno-1H-pentaleno[1,2-c]pyrrole-1,3-(2H)-dione]",25%,~ 80%,inactive,94 nM,inactive,inactive,–
"O=C1C2C(C(=O)N1CCCCN1CCN(c3ncccn3)CC1)C1C3CC4C(C32)C41 (stereo not drawn) [Example 2, Exo-2-[4-[4-(2-pyrimidinyl)-1-piperazinyl]butyl]octahydro-4,5,7-metheno-1H-pentaleno[1,2-c]pyrrole-1,3(2H)-dione]",–,> 20%,active,40 nM,inactive,15.61 mg/kg,"[3H] Spiroperidol Binding Inhibition, % at 1 μM (D-2 dopamine receptor; 1 µM): 0%"
"CN(C)CCCN1c2ccccc2Sc2ccc(Cl)cc21 [chlorpromazine, reference compound]",–,–,–,–,–,–,ratio of the ED50 for stereotyped behavior to the ED50 for climbing [2]: 1.51
"O=C1CC2(CCCC2)CC(=O)N1CCCCN1CCN(c2ncccn2)CC1 [buspirone, reference compound]",–,–,–,–,–,–,affinity for 5-HT1A serotonin receptor (in words) ([3]; displacement of [3H]8-OH DPAT): potent affinity
"O=C1C2C(C(=O)N1CCCCN1CCN(c3cncc(Cl)n3)CC1)C1C3CC4C(C32)C41 (stereo not drawn) [Example 3, Endo-2-[4-[4-(6-chloro-2-pyrazinyl)-1-piperazinyl]butyl]octahydro-4,5,7-metheno-1H-pentaleno[1,2-c]pyrrole-1,3-(2H)-dione]",44%,> 20%,–,41.9 nM,inactive,–,"ED50 (rats): 46.8 mg/kg; ED50 [2, 4]: 19 mg/kg"
